Experimental data taken from patent publication US6162828A, “Cysteine protease inhibitor” (Takeda Chemical Industries, Ltd., priority 1995, dated 2000).
Where a SMILES comes first, the peptide text is derived from it. [ ]: non-standard residue; d: D form. The star is where a group is joined. Fmoc = O=C(OCC1c2ccccc2-c2ccccc21)*; Aib = CC(C)(N)C(=O)O

Molecular target: T1, ICE (IL-1β converting enzyme), recombinant (Homo sapiens, UniProt P29466)
T1 construct: positions corresponding to molecular weights of 25,000 and 15,800; made in house; host or cells: Sf9 insect cells (baculovirus, pVL-ICE)
T1 sequence (P29466 120-297 limits assumed): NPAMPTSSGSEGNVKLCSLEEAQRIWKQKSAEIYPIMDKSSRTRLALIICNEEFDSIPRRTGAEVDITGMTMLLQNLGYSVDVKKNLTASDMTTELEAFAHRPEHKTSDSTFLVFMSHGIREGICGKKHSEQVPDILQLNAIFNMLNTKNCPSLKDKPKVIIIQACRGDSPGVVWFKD
T1 sequence (P29466 317-404 limits assumed): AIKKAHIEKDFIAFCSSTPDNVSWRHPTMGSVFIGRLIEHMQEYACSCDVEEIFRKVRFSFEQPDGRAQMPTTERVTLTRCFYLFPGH
Assay: Determination of ICE-inhibiting activity (fluorogenic substrate Ac-Y-V-A-D-MCA)
Format: biochemical
Conditions: recombinant ICE enzyme solution, 37° C. for 20 minutes, read-out: ICE-inhibiting activity in terms of IC50 value
Description: Two ml of the ICE expression recombinant virus suspension as prepared in Reference Example 5 was added to the insect cell Sf9 cultured in 2 1 of Sf900 medium containing 5% fetal calf serum (FCS) (1.5×10^6 cells/ml) to cause infection. Post-infection cultivation was conducted at 27° C. in a spinner flask for 4 days. Cultured cells were recovered (hereinafter all operations conducted on ice), washed 3 times with PBS (-), and suspended in a hypotonic buffer (20 mM KCl, 25 mM HEPES, pH 7.4, 5 MM MgCl2, 1 MM EDTA, 1 MM PMSF, 10 μg/ml pepstatin and leupeptine) to 10^8 cells/ml. After the suspension was kept standing on ice for 20 minutes, cells were disrupted (25 times) using a Dounce homogenizer. Disrupted cells were removed via centrifugation; ammonium sulfate was added to the supernatant to 40% saturation; the precipitate fraction was removed via centrifugation. Ammonium sulfate was further added to 80% saturation; the precipitate was recovered. The precipitate was dissolved in buffer A (20 mM KCl, 25 mM HEPES, pH 7.4, 5 mM EDTA, 2 mM DTT, 1 mM PMSF, 0.1% NP-40, 10% glycerol) and dialyzed against buffer A overnight. […]
After completion of the reaction, the fluorescence intensity of free aminomethylcoumarin was determined at a wavelength of 450 nm via excitation at a wavelength of 365 nm, using a fluorometer FCA (produced by Baxter). […]

- IC50: 19 nM
SMILES: CC(C)[C@H](NC(=O)OCC1c2ccccc2-c2ccccc21)C(=O)NC(C)(C)C(=O)N[C@H](C=O)CC(=O)O [Example 60, Fmoc-Val-Aib-NH--CH(CHO)CH2 COOH] (Fmoc-Val-[Aib]-Asp-aldehyde)
